Key:
[1] = Inhibition of HCV H genotype 1a N-terminal hexa-histidine-tagged NS3 helicase expressed in Escherichia coli BL21(DE3) using DNA oligonucleotide duplex as substrate after 1 hr by unwinding assay; parameters: species or system Hepatitis C virus (isolate H)
[2] = Binding affinity to HCV H genotype 1a N-terminal hexa-histidine-tagged NS3 helicase expressed in Escherichia coli BL21(DE3) assessed as resonance peak2 by STD NMR spectroscopic analysis; parameters: species or system Hepatitis C virus (isolate H)
[3] = Binding affinity to HCV H genotype 1a N-terminal hexa-histidine-tagged NS3 helicase expressed in Escherichia coli BL21(DE3) assessed as resonance peak1 by STD NMR spectroscopic analysis; parameters: species or system Hepatitis C virus (isolate H)
[4] = Binding affinity to HCV H genotype 1a N-terminal hexa-histidine-tagged NS3 helicase expressed in Escherichia coli BL21(DE3) at pH 6.5 by circular dichroism assay; parameters: species or system Hepatitis C virus (isolate H)
[5] = Binding affinity to HCV H genotype 1a N-terminal hexa-histidine-tagged NS3 helicase expressed in Escherichia coli BL21(DE3) in ITC/NMR buffer at pH 7.5 by circular dichroism assay; parameters: species or system Hepatitis C virus (isolate H)
[6] = Binding affinity to HCV H genotype 1a N-terminal hexa-histidine-tagged NS3 helicase expressed in Escherichia coli BL21(DE3) by isothermal titration calorimetry; parameters: species or system Hepatitis C virus (isolate H)
[7] = Selectivity ratio for HCV H genotype 1a N-terminal hexa-histidine-tagged NS3 helicase over human RNA helicase A

O=C(O)Cc1cn(Cc2cccc(Cl)c2)c2ccccc12
IC50 [1]: 71 µM

O=C(O)Cc1cn(-c2ccc([N+](=O)[O-])cc2C(F)(F)F)c2ccc(Br)cc12
IC50 [1]: 140 µM

Nc1cc(-c2ccc3c(CC(=O)O)cn(Cc4cccc(Cl)c4)c3c2)cc([N+](=O)[O-])c1
IC50 [1]: 140 µM

O=C(O)Cc1cn(Cc2cccc(Cl)c2)c2cc(Br)ccc12
IC50 [1]: 94 µM

Nc1cc(N)cc(-c2ccc3c(CC(=O)O)cn(Cc4cccc(Cl)c4)c3c2)c1
IC50 [1]: 35 µM

O=C(O)Cc1cn(Cc2cccc([N+](=O)[O-])c2)c2ccccc12
IC50 [1]: 46 µM

Cc1cccc(Cn2cc(CC(=O)O)c3ccccc32)c1
IC50 [1]: 85 µM

C#Cc1cccc(Cn2cc(CC(=O)O)c3ccccc32)c1
IC50 [1]: 31 µM

O=C(O)Cc1cn(Cc2cccc(I)c2)c2ccccc12
IC50 [1]: 52 µM

Nc1cccc(Cn2cc(CC(=O)O)c3ccccc32)c1
IC50 [1]: > 500 µM

O=C(O)Cc1cn(Cc2cccc(Cl)c2)c2cc(-c3ccccc3)ccc12
IC50 [1]: 140 µM

O=C(O)Cc1cn(Cc2cccc(Cl)c2)c2cc(Cl)ccc12
IC50 [1]: 94 µM

COc1ccc([N+](=O)[O-])cc1Cn1cc(CC(=O)O)c2ccc(-c3cc(N)cc(N)c3)cc21
Kd [2]: 28 µM | Kd [3]: 32 µM | Kd [4]: 3.5 µM | Kd [5]: 41 µM | Kd [6]: 33 µM | Selectivity ratio [7]: 36 | IC50 [1]: 3 µM

O=C(O)Cc1cn(Cc2ccccc2)c2ccccc12
IC50 [1]: 240 µM

COc1ccc([N+](=O)[O-])cc1Cn1cc(CC(=O)O)c2ccccc21
IC50 [1]: 14 µM

O=C(O)Cc1cn(Cc2cccc(O)c2)c2ccccc12
IC50 [1]: 150 µM

O=C(O)Cc1c[nH]c2ccccc12 [INDOLE-3-ACETIC ACID]
IC50 [1]: 500 µM
